For twelve molecules, GI50 and TGI results are on record in PubChem BioAssay (NCI).

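In this assay, cells in 96-well plates receive the compound at five concentrations for 48 hours. Endpoints are linearly interpolated between the surrounding concentrations. Abbreviation: GI50, concentration required for 50% inhibition of growth. TGI denotes the concentration required for complete inhibition of growth.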 A value given as a limit tells only on which side of the number the result lay.

Common to all, as to experiment: NCI anticancer screen, dose series, 48 h
Test [1] concerns LOX IMVI melanoma.
Test [2] has as its system M14 melanoma.
In test [3] the test system is MALME-3M melanoma.
Test [4] relates to MDA-MB-435.
In test [5] the test system is NCI-H23 lung.
In test [6] the test system is NCI/ADR-RES ovarian.
In test [7] the test system is SK-MEL-28 melanoma.
Test [8] has as its system SN12C renal.
Test [9] concerns SW-620 colon.
The subject of test [10] is UACC-62 melanoma.

Take `CC/C=C\CCC/C=C1/C(=O)C=C[C@@H]1C/C=C\CCCC(=O)O`: the GI50 in test [1] was 1.46 µM; in test [2] it was 3.89 µM; in test [3], 8.66 µM; in [4], 2.01 µM; in test [5], 3.37 µM; in test [6] it was 2.96 µM. Further, the GI50 is 3.13 µM in test [7], 3.05 µM in test [8], 4.46 µM in test [9] and 2.22 µM in test [10]. The TGI in test [1] was determined as 3.22 µM; in test [2], 17.3 µM; in test [3] it was 26.6 µM; in test [4] it was 4.99 µM; in test [5], 13.7 µM; in test [6] it was 11.8 µM. Moreover, the TGI in test [7] came to 10.6 µM; in test [8] it was 8.5 µM; in test [9], 18 µM; in test [10] it was 4.93 µM.

For `COc1ccc(/C=C2\COc3ccc(-c4ccccc4)cc3C2=O)cc1O`, the GI50 in [1] is 1.85 µM; in [2], 3.41 µM; in test [3], 1.04 µM; in test [4] it was 2.03 µM; in test [5], 4.09 µM; in [6], 3.39 µM. Further, the GI50 in [7] is 1.88 µM; in test [8], 3.78 µM; in [9] it was 1.82 µM; in [10], 3.59 µM. For the same molecule, the TGI turned out to be 3.87 µM in test [1]; 14.6 µM in test [2]; 4.31 µM in test [3]; 15.9 µM in test [4]; 16.6 µM in [5]; 14 µM in test [6]. For the same molecule, the TGI in [7] stood at 3.96 µM; in test [8] it was 14.5 µM; in test [9], 3.72 µM; in [10], 18.1 µM.

Consider `CCNCCNc1cc(-c2ccc(F)cc2)c(C#N)c2nc3ccccc3n12`, for which the GI50 was 1.82 µM in [1]; 1.97 µM in test [2]; 1.77 µM in test [3]; 1.78 µM in test [4]; 13.7 µM in test [5]; 6.34 µM in test [6]. Further, the GI50 in [7] was 1.86 µM; in test [8], 3.89 µM; in test [9], 2.95 µM; in test [10] it was 1.9 µM. The TGI came to 3.45 µM in [1]; 3.63 µM in [2]; 3.45 µM in test [3]; 3.5 µM in test [4]; 29 µM in [5]; 25.1 µM in [6]. Moreover, the TGI in test [7] was determined as 3.59 µM; in test [8], 14.4 µM; in test [9], 10.1 µM; in test [10], 3.95 µM.

Turning to `Cn1ccnc1C(=O)/C=C/c1ccc(C(=O)Nc2nc3ccccc3[nH]2)cc1`, the GI50 in test [1] was 2.38 µM; in [2], 10.3 µM; in test [3] it was over 25 µM; in [4], 2.87 µM; in test [5], 3.34 µM; in test [6], 4.95 µM. Besides, the GI50 in test [7] is over 25 µM; in [8] it was 9.93 µM; in [9], 0.808 µM; in test [10], 6.07 µM. Moreover, the TGI in test [1] was over 25 µM; in test [2], over 25 µM; in test [3] it was over 25 µM; in [4], 19.8 µM; in test [5], over 25 µM; in test [6] it was over 25 µM. Moreover, the TGI in test [7], in [8], in test [9] and in test [10] was over 25 µM each time.

Turning to `COc1cc(C2C(C#N)=C(N)OC3=C2C(=O)c2ccccc2C3=O)cc(OC)c1OC` (stereo not given), the GI50 was 0.629 µM in test [1]; 0.395 µM in test [2]; 1.18 µM in test [3]; 0.239 µM in test [4]; 0.713 µM in [5]; 3.23 µM in [6]. The GI50 in test [7] is 6.72 µM; in [8], 1.3 µM; in [9], 0.413 µM; in test [10], 0.396 µM. The TGI came out at 14 µM in test [1]; 16.1 µM in test [2]; 13.7 µM in [3]; 0.523 µM in test [4]; 4.34 µM in test [5]; 22.5 µM in [6]. For the same molecule, the TGI stood at 22.9 µM in test [7], 11.1 µM in test [8], 25.9 µM in test [9] and 2.02 µM in test [10].

For the molecule `O=C(NNS(=O)(=O)c1cc(C(F)(F)F)cc(C(F)(F)F)c1)c1cnn(-c2ccc(Cl)cc2)c1C(F)(F)F`, the GI50 in test [1] was 17 µM; in [2] it was 16.3 µM; in test [3], 16.9 µM; in [4], 17 µM; in test [5] it was 18.5 µM; in [6] it was 19.6 µM. In addition, the GI50 in test [7] was 20.3 µM; in test [8] it was 17.2 µM; in test [9] it was 17.7 µM; in test [10], 14.5 µM. The TGI in test [1] came to 36.5 µM; in test [2], 30.9 µM; in test [3], 34.3 µM; in [4], 33.2 µM; in test [5] it was 40.8 µM; in test [6] it was 41 µM. The TGI was determined as 51.7 µM in test [7], 34.8 µM in test [8], 38.7 µM in test [9] and 30 µM in test [10].

Regarding `Oc1ccccc1-n1c(-c2ccccc2)ccc1-c1ccccc1`, the GI50 in [1] is 6.1 µM; in [2] it was 3.71 µM; in test [3], 2.9 µM; in [4], 2.81 µM; in test [5] it was 4.79 µM; in test [6] it was 5.13 µM. Also, the GI50 in test [7] was 10.8 µM; in test [8] it was 3.62 µM; in [9], 5.49 µM; in test [10], 5.43 µM. Further, the TGI was 20.5 µM in test [1]; 29.2 µM in test [2]; 16.2 µM in test [3]; 20.9 µM in [4]; 33.3 µM in [5]; 23.1 µM in test [6]. For the same molecule, the TGI in [7] is 31.6 µM; in [8], 16 µM; in test [9], 20.2 µM; in test [10], over 100 µM.

For the molecule `C[Se]C(=O)CC1=C2C=C(F)C=CC2/C(=C\c2ccc(S(C)=O)cc2)C1C` (stereo not given), the GI50 in test [1] was 0.0141 µM; in test [2] it was 0.0387 µM; in test [3] it was 0.156 µM; in test [4], under 0.0117 µM; in test [5], 0.065 µM; in [6], 0.0776 µM. Besides, the GI50 in test [7] was 0.0343 µM; in test [8] it was 0.0401 µM; in [9] it was 0.273 µM; in test [10], 0.41 µM. Besides, the TGI was found to be 0.0296 µM in test [1]; 1.52 µM in test [2]; 0.4 µM in [3]; 0.362 µM in test [4]; 1.03 µM in [5]; 3.96 µM in test [6]. In addition, the TGI in test [7] is 0.891 µM; in [8] it was 1.34 µM; in test [9], 3.25 µM; in test [10] it was 2.3 µM.

As for `NC(CSC(c1ccccc1)(c1ccccc1)c1ccc2ccccc2c1)C(=O)O` (stereo not given), the GI50 in [1] was 0.172 µM; in [2], 0.0211 µM; in [3], 1.33 µM; in test [4], 0.018 µM; in test [5] it was 0.131 µM; in [6], 0.989 µM. In addition, the GI50 in [7] is 0.38 µM; in test [8] it was 0.0874 µM; in test [9], 0.0381 µM; in test [10], 0.0628 µM. For the same molecule, the TGI in [1] was found to be 18.1 µM; in test [2], 0.0512 µM; in test [3], 25.4 µM; in test [4], 0.0363 µM; in test [5], 16.4 µM; in test [6], 3.64 µM. Further, the TGI in [7] is 16 µM; in test [8], 18.2 µM; in [9], 11.6 µM; in test [10] it was 13.6 µM.

For the molecule `N#Cc1nc(-c2ccccc2)oc1S(=O)(=O)N1CCOCC1`, the GI50 in test [1] is 1.46 µM; in test [2] it was 2.26 µM; in test [3], 1.59 µM; in [4], 4.03 µM; in test [5], 8.6 µM; in [6] it was 14.8 µM. Further, the GI50 is 2.46 µM in test [7], 4.12 µM in test [8], 2.04 µM in [9] and 9.33 µM in test [10]. The TGI in [1] was 2.91 µM; in [2], 7.42 µM; in test [3], 3.15 µM; in test [4], 15.1 µM; in [5], 26 µM; in test [6] it was 84.2 µM. The TGI in [7] amounted to 6.5 µM; in test [8], 17.1 µM; in test [9] it was 4.84 µM; in [10], 21.4 µM.

As to `C=C(C)[C@H]1CC/C(C)=C/CCC(C)C(=O)CC/C(CO)=C\[C@@H]1O` (stereo not given in full), the GI50 in [1] is 57.3 µM; in test [2], 87.7 µM; in test [3] it was 55.3 µM; in test [4], 49.2 µM; in test [5] it was over 100 µM; in [6] it was over 100 µM. Further, the GI50 in test [7] is 7.9 µM; in test [8] it was over 100 µM; in test [9] it was over 100 µM; in test [10], 67.6 µM. Besides, the TGI in test [1], in [2], in [3], in test [4], in test [5] and in test [6] was over 100 µM each time. In addition, the TGI in test [7], in test [8], in [9] and in test [10] was over 100 µM in each case.

As to `Cn1c(O)c(C(=O)Nc2ccc([N+](=O)[O-])cc2)c(=O)n(C)c1=S`, the TGI was over 24.9 µM in test [1]; 22.9 µM in test [2]; 5.03 µM in test [3]; 4.95 µM in test [4]; 3.26 µM in [5]; 11 µM in test [6]. For the same molecule, the TGI is 3.68 µM in test [7], over 70.7 µM in [8], 31.3 µM in test [9] and 3.64 µM in [10].
